According to patent US9932309B2, “2-oxo-3,4-dihydropyridine-5-carboxylates and their use” (UNIVERSITE DE LILLE 2 DROIT ET SANTE, priority 2014, dated 2018):

Tests used:
[1] = target: T1, hTGR5 (Homo sapiens, UniProt Q8TDU6); assay: TGR5/CRE Luciferase Assay (hTGR5); assay type: cell-based; settings: for EC50: HEK 293 cells co-transfected with pCMV tag4b-TGR5h and pCRE TA-Luciferase, overnight incubation; for hTGR5 % trans: percentage of the 10 μM LCA value, HEK 293 cells transfected with hTGR5
T1 construct: expressed in transfected cells; host or cells: HEK293 cells, transiently co-transfected with the pCRE TA-Luciferase reporter
T1 sequence (Q8TDU6 1-330): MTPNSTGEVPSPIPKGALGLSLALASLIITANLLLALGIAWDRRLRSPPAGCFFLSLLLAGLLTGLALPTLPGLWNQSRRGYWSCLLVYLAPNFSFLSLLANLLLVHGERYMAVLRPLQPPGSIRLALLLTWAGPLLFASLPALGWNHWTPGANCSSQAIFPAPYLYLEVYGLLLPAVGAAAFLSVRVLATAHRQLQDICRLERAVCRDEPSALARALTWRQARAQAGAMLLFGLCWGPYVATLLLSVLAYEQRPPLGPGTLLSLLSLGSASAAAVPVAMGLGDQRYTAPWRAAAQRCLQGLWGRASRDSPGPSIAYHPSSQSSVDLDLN
Method: (§1) TGR5/CRE Luciferase Assay
(§2) In the following Tables TGR5 activation by compounds of the invention and subsequent increase in intracellular cAMP were evaluated using a luciferase reporter gene assay. Human embryonic kidney (HEK) 293 cells were transiently co-transfected with pCMV tag4b-TGR5 h (to follow hTGR5 activation) or pCMV AC6-TGR5m (to follow mTGR5 activation) expression plasmids and the pCRE TA-Luciferase reporter plasmid using the JET PEI reagent (Polyplus transfection). Transfected cells were seeded in 96-well plates and incubated overnight with the test compounds at increasing concentrations tested in duplicate. Lithocolic acid (LCA) at 10 μM was used as a positive reference compound. The cAMP-dependent luciferase expression was followed using the BrightGlo reagent according to the manufacturer (Promega) instructions. Luminescence was read with a Mithras plate reader (Berthold) or a Victor3™ V1420 (Perkin Elmer). […] Concentration-response curves were fitted by a nonlinear regression analysis to a 4 parameter logistic equation

[2] = target: T2, mTGR5 (Mus musculus, UniProt Q80SS6); assay: TGR5/CRE Luciferase Assay (mTGR5); assay type: cell-based; settings: for mTGR5 % trans: percentage of the 10 μM LCA value, HEK 293 cells transfected with mTGR5; for EC50: HEK 293 cells co-transfected with pCMV AC6-TGR5m and pCRE TA-Luciferase, overnight incubation
T2 construct: expressed in transfected cells; host or cells: HEK293 cells, transiently co-transfected with the pCRE TA-Luciferase reporter
T2 sequence (Q80SS6 1-329): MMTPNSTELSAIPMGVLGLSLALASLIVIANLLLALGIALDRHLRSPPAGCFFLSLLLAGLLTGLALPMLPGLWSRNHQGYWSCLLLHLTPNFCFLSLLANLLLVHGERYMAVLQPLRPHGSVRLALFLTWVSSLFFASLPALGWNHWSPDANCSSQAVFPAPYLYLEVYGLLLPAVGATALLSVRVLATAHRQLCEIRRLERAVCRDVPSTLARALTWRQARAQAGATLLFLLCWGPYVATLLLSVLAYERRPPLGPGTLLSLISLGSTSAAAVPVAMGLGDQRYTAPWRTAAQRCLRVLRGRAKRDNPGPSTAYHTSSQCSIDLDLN
Method: as §1, §2

SMILES: COc1ccccc1COC(=O)C1=C(C)N(C[C@H]2CCCO2)C(=O)C[C@H]1c1ccc(Cl)cc1 (racemic) [Compound 67, (2-methoxyphenyl)methyl (4S)-4-(4-chlorophenyl)-6-methyl-2-oxo-1-[[(2R)-tetrahydrofuran-2-yl]methyl]-3,4-dihydropyridine-5-carboxylate]
- EC50 [1]: 20 nM

SMILES: COc1ccccc1COC(=O)C1=C(C)N(C[C@H]2CCCO2)C(=O)C[C@H]1c1ccc(Cl)nc1 (racemic) [Example 148, (2-methoxyphenyl)methyl (4S)-4-(6-chloro-3-pyridyl)-6-methyl-2-oxo-1-[[(2R)-tetrahydrofuran-2-yl]methyl]-3,4-dihydropyridine-5-carboxylate and 2-methoxyphenyl)methyl (4R)-4-(6-chloro-3-pyridyl)-6-methyl-2-oxo-1-[[(2S)-tetrahydrofuran-2-yl]methyl]-3,4-dihydropyridine-5-carboxylate]
- EC50 [1]: 1 nM

SMILES: COc1ccccc1COC(=O)C1=C(C)N(C[C@@H]2CCCO2)C(=O)C[C@H]1c1ccc(Cl)nc1 (racemic) [Example 159, (2-Methoxyphenyl)methyl-(4S)-4-(6-chloro-3-pyridyl)-6-methyl-2-oxo-1-[[(2S)-tetrahydrofuran-2-yl]methyl]-3,4-dihydropyridine-5-carboxylate and (2-methoxyphenyl)methyl-(4R)-4-(6-chloro-3-pyridyl)-6-methyl-2-oxo-1-[[(2R)-tetrahydrofuran-2-yl]methyl]-3,4-dihydropyridine-5-carboxylate]
- EC50 [1]: 37 nM
- hTGR5 % trans [1]: 107%

SMILES: COc1ccc(C2CC(=O)NC(C)=C2C(=O)OCc2ccccc2)cc1 (stereo not drawn) [Compound 6, 4-(4-Methoxy-phenyl)-2-methyl-6-oxo-1,4,5,6-tetrahydro-pyridine-3-carboxylic acid benzyl ester]
- EC50 [1]: 12800 nM

SMILES: CC1=C(C(=O)OCc2ccccc2)C(c2cccc(Cl)c2)CC(=O)N1 (stereo not drawn) [Compound 11, 4-(3-Chloro-phenyl)-2-methyl-6-oxo-1,4,5,6-tetrahydro-pyridine-3-carboxylic acid benzyl ester]
- mTGR5 % trans [2]: 10%

SMILES: CC1=C(C(=O)OCc2ccccc2)C(c2ccc(Cl)cc2)CC(=O)N1 (stereo not drawn) [Compound 12, Benzyl 4-(4-chlorophenyl)-6-methyl-2-oxo-3,4-dihydro-1H-pyridine-5-carboxylate]
- EC50 [2]: 4500 nM
- mTGR5 % trans [2]: 52%

SMILES: CC1=C(C(=O)OCc2ccccc2)C(c2ccc(Cl)cc2F)CC(=O)N1 (stereo not drawn) [Compound 15, benzyl 4-(4-chloro-2-fluoro-phenyl)-6-methyl-2-oxo-3,4-dihydro-1H-pyridine-5-carboxylate]
- EC50 [1]: 3900 nM

SMILES: CC1=C(C(=O)OCc2ccccc2)C(c2ccc(Br)cc2)CC(=O)N1 (stereo not drawn) [Compound 16, benzyl 4-(4-bromophenyl)-6-methyl-2-oxo-3,4-dihydro-1H-pyridine-5-carboxylate]
- EC50 [2]: 1700 nM
- mTGR5 % trans [2]: 21%

SMILES: CCC1=C(C(=O)OCc2ccccc2)C(c2ccc(Cl)cc2)CC(=O)N1C (stereo not drawn) [Compound 18, Benzyl 4-(4-chlorophenyl)-6-ethyl-1-methyl-2-oxo-3,4-dihydropyridine-5-carboxylate]
- EC50 [1]: 1400 nM
- hTGR5 % trans [1]: 34%

SMILES: CN1C=C(C(=O)OCc2ccccc2)C(c2ccc(Cl)cc2)CC1=O (stereo not drawn) [Compound 24, Benzyl 4-(4-chlorophenyl)-1-methyl-2-oxo-3,4-dihydropyridine-5-carboxylate]
- EC50 [2]: 5800 nM
- mTGR5 % trans [2]: 34%

SMILES: CCN1C(=O)CC(c2ccc(Cl)cc2)C(C(=O)OCc2ccccc2)=C1C (stereo not drawn) [Compound 34, Benzyl 4-(4-chlorophenyl)-1-ethyl-6-methyl-2-oxo-3,4-dihydropyridine-5-carboxylate]
- EC50 [2]: 800 nM
- mTGR5 % trans [2]: 70%

SMILES: CCCN1C(=O)CC(c2ccc(Cl)cc2)C(C(=O)OCc2ccccc2)=C1C (stereo not drawn) [Compound 35, Benzyl 4-(4-chlorophenyl)-6-methyl-2-oxo-1-propyl-3,4-dihydropyridine-5-carboxylate]
- EC50 [2]: 800 nM
- mTGR5 % trans [2]: 76%

SMILES: CCCCN1C(=O)CC(c2ccc(Cl)cc2)C(C(=O)OCc2ccccc2)=C1C (stereo not drawn) [Compound 36, Benzyl 1-butyl-4-(4-chlorophenyl)-6-methyl-2-oxo-3,4-dihydropyridine-5-carboxylate]
- EC50 [1]: 600 nM
- hTGR5 % trans [1]: 54%

SMILES: CC1=C(C(=O)OCc2ccccc2)C(c2ccc(Cl)cc2)CC(=O)N1CC1CC1 (stereo not drawn) [Compound 43, Benzyl 4-(4-chlorophenyl)-1-(cyclopropylmethyl)-6-methyl-2-oxo-3,4-dihydropyridine-5-carboxylate]
- EC50 [2]: 300 nM

SMILES: CC1=C(C(=O)OCc2ccccc2)C(c2ccc(Cl)cc2)CC(=O)N1CCN(C)C (stereo not drawn) [Compound 50, Benzyl 4-(4-chlorophenyl)-1-[2-(dimethylamino)ethyl]-6-methyl-2-oxo-3,4-dihydropyridine-5-carboxylate]
- EC50 [2]: 3600 nM
- mTGR5 % trans [2]: 77%

SMILES: COC(=O)CN1C(=O)CC(c2ccc(Cl)cc2)C(C(=O)OCc2ccccc2)=C1C (stereo not drawn) [Compound 57, Benzyl 4-(4-chlorophenyl)-1-(2-methoxy-2-oxo-ethyl)-6-methyl-2-oxo-3,4-dihydropyridine-5-carboxylate]
- EC50 [2]: 200 nM

SMILES: COCCN1C(=O)CC(c2ccc(Cl)cc2)C(C(=O)OCc2ccccc2OC)=C1C (stereo not drawn) [Compound 64, (2-methoxyphenyl)methyl 4-(4-chlorophenyl)-1-(2-methoxyethyl)-6-methyl-2-oxo-3,4-dihydropyridine-5-carboxylate]
- EC50 [1]: 100 nM

SMILES: COc1ccccc1COC(=O)C1=C(C)N(CCO)C(=O)CC1c1ccc(Cl)cc1 (stereo not drawn) [Compound 65, (2-methoxyphenyl)methyl 4-(4-chlorophenyl)-1-(2-hydroxyethyl)-6-methyl-2-oxo-3,4-dihydropyridine-5-carboxylate]
- EC50 [2]: 300 nM
- mTGR5 % trans [2]: 107%

SMILES: COC(=O)CN1C(=O)CC(c2ccc(Cl)cc2)C(C(=O)OCc2ccccc2OC)=C1C (stereo not drawn) [Compound 73, (2-methoxyphenyl)methyl 4-(4-chlorophenyl)-1-(2-methoxy-2-oxo-ethyl)-6-methyl-2-oxo-3,4-dihydropyridine-5-carboxylate]
- EC50 [2]: 30 nM
- mTGR5 % trans [2]: 93%

SMILES: COCCN1C(=O)CC(c2ccc(Cl)cc2)C(C(=O)OCc2cccc(F)c2)=C1C (stereo not drawn) [Example 85, (3-fluorophenyl)methyl 4-(4-chlorophenyl)-1-(2-methoxyethyl)-6-methyl-2-oxo-3,4-dihydropyridine-5-carboxylate]
- EC50 [2]: 700 nM
- mTGR5 % trans [2]: 82%

SMILES: COCCN1C(=O)CC(c2ccc(Cl)cc2)C(C(=O)OCc2ccccc2Cl)=C1C (stereo not drawn) [Example 87, (2-chlorophenyl)methyl 4-(4-chlorophenyl)-1-(2-methoxyethyl)-6-methyl-2-oxo-3,4-dihydropyridine-5-carboxylate]
- EC50 [1]: 500 nM
- hTGR5 % trans [1]: 67%

SMILES: COCCN1C(=O)CC(c2ccc(Cl)cc2)C(C(=O)OCc2ccc(C(F)(F)F)cc2)=C1C (stereo not drawn) [Example 92, [4-(trifluoromethyl)phenyl]methyl 4-(4-chlorophenyl)-1-(2-methoxyethyl)-6-methyl-2-oxo-3,4-dihydropyridine-5-carboxylate]
- EC50 [2]: 300 nM

SMILES: COCCN1C(=O)CC(c2ccc(Cl)cc2)C(C(=O)OCc2cccc(C)c2)=C1C (stereo not drawn) [Example 99, m-tolylmethyl 4-(4-chlorophenyl)-1-(2-methoxyethyl)-6-methyl-2-oxo-3,4-dihydropyridine-5-carboxylate]
- EC50 [2]: 300 nM

SMILES: COCCN1C(=O)CC(c2ccc(Cl)cc2)C(C(=O)OCCCc2ccccc2)=C1C (stereo not drawn) [Example 111, 3-phenylpropyl 4-(4-chlorophenyl)-1-(2-methoxyethyl)-6-methyl-2-oxo-3,4-dihydropyridine-5-carboxylate]
- EC50 [1]: 1100 nM
- hTGR5 % trans [1]: 55%

SMILES: COCCN1C(=O)CC(c2ccc(Cl)cc2)C(C(=O)OCC2CCCCC2)=C1C (stereo not drawn) [Example 113]
- EC50 [1]: 1100 nM
- hTGR5 % trans [1]: 57%

SMILES: COc1ccccc1COC(=O)C1=C(C)N(C[C@H]2CCCO2)C(=O)C[C@H]1c1ccc(Cl)cc1 [Example 167, (2-Methoxyphenyl)methyl-(4S)-4-(4-chlorophenyl)-6-methyl-2-oxo-1-[[(2R)-tetrahydrofuran-2-yl]methyl]-3,4-dihydropyridine-5-carboxylate]
- EC50 [1]: 8 nM
- hTGR5 % trans [1]: 103%
